Laboratory results: patent US11147272B2, “Pyridone compounds and agricultural and horticultural fungicides comprising the same as active ingredients” (MITSUI CHEMICALS AGRO, INC., priority 2017, dated 2021)

Columns and labels:
Phytophthora infestans = test: whole plant or invertebrate; format: in vivo; details: Late blight on tomato; class of control value
Alternaia brassicicola = test: Test Example C: Alternaria sooty spot on cabbage; format: in vivo; details: Alternaria sooty spot on cabbage; class of control value
Description: Seeds of a test plant (cabbage variety: Shikidori) were planted and cultivated until the cotyledons extended.
<Control Value> Control value=100{1−(n/3)}

Puccinia recondita = test: Test Example E: Brown rust on wheat; format: in vivo; details: Brown rust on wheat; class of control value
Plasmopara viticola = test: Test Example G: Downy mildew on vine; details: Downy mildew on vine (Neomuscat); 250 ppm spray, 2.5 ml/pot; assessed 7 to 10 days after inoculation
[1] = tested on: Blumeria graminis f. sp. hordei; test: Test Example D: Powdery mildew on barley; details: Powdery mildew on barley; class of control value
[2] = tested on: Colletotrichum orbiculare; test: Test Example H: Anthracnose on cucumber; details: Anthracnose on cucumber (Sagami Hanjiro); 250 ppm spray, 2.5 ml/pot; assessed 6 to 10 days after inoculation
Magnaporthe grisea = test: whole plant or invertebrate; format: in vivo; details: Blast on rice; class of control value
Botrytis cinerea = test: Test Example B: Gray mold on tomato; details: Gray mold on tomato; class of control value

SMILES | Test F control value class (Phytophthora infestans) | Test C control value class (Alternaia brassicicola) | Test E control value class (Puccinia recondita) | Test G control value class (Plasmopara viticola) | Test D control value class [1] | Test H control value class [2] | Test A control value class (Magnaporthe grisea) | Test B control value class (Botrytis cinerea)
Cc1ccc(=O)n(C)c1-c1c(F)cccc1F [compound 3] | L (50% or less control value) | H (more than 50% control value) | L (50% or less control value) | L (50% or less control value) | L (50% or less control value) | L (50% or less control value) | L (50% or less control value) | L (50% or less control value)
Cc1cc(Cl)c(=O)n(C)c1-c1c(F)cccc1F [compound 4] | H (more than 50% control value) | H (more than 50% control value) | L (50% or less control value) | L (50% or less control value) | L (50% or less control value) | L (50% or less control value) | H (more than 50% control value) | L (50% or less control value)
CCn1c(-c2c(F)cccc2F)c(C(C)C)ccc1=O [compound 5] | L (50% or less control value) | H (more than 50% control value) | H (more than 50% control value) | L (50% or less control value) | H (more than 50% control value) | H (more than 50% control value) | H (more than 50% control value) | H (more than 50% control value)
CCn1c(-c2c(F)cccc2F)c(C(C)C)cc(Cl)c1=O [compound 6] | L (50% or less control value) | H (more than 50% control value) | H (more than 50% control value) | L (50% or less control value) | H (more than 50% control value) | H (more than 50% control value) | H (more than 50% control value) | H (more than 50% control value)
CCn1c(-c2c(F)cc(F)cc2F)c(C(C)C)cc(Br)c1=O [compound 9] | L (50% or less control value) | H (more than 50% control value) | H (more than 50% control value) | H (more than 50% control value) | H (more than 50% control value) | H (more than 50% control value) | H (more than 50% control value) | H (more than 50% control value)
CCn1c(-c2c(F)cc(OC)cc2F)c(C(C)C)cc(Br)c1=O [compound 12] | L (50% or less control value) | H (more than 50% control value) | H (more than 50% control value) | H (more than 50% control value) | H (more than 50% control value) | H (more than 50% control value) | H (more than 50% control value) | H (more than 50% control value)
CC(C)c1ccc(=O)n(C)c1-c1c(F)cc(F)cc1F [compound 13] | L (50% or less control value) | L (50% or less control value) | L (50% or less control value) | L (50% or less control value) | H (more than 50% control value) | L (50% or less control value) | H (more than 50% control value) | H (more than 50% control value)
COc1cc(F)c(-c2c(C(C)C)ccc(=O)n2C)c(F)c1 [compound 14] | H (more than 50% control value) | H (more than 50% control value) | H (more than 50% control value) | L (50% or less control value) | H (more than 50% control value) | H (more than 50% control value) | H (more than 50% control value) | H (more than 50% control value)
CC(C)c1cc(Cl)c(=O)n(C)c1-c1c(F)cc(F)cc1F [compound 15] | L (50% or less control value) | H (more than 50% control value) | H (more than 50% control value) | L (50% or less control value) | H (more than 50% control value) | H (more than 50% control value) | H (more than 50% control value) | H (more than 50% control value)
COc1cc(F)c(-c2c(C(C)C)cc(Cl)c(=O)n2C)c(F)c1 [compound 16] | L (50% or less control value) | H (more than 50% control value) | H (more than 50% control value) | H (more than 50% control value) | H (more than 50% control value) | H (more than 50% control value) | H (more than 50% control value) | H (more than 50% control value)
CCn1c(-c2c(F)cccc2F)c(C(C)O)cc(Cl)c1=O (stereo not shown) [compound 17] | H (more than 50% control value) | H (more than 50% control value) | H (more than 50% control value) | H (more than 50% control value) | L (50% or less control value) | H (more than 50% control value) | L (50% or less control value) | H (more than 50% control value)
CCn1c(-c2c(F)cccc2F)c(C(C)OC)cc(Cl)c1=O (stereo not shown) [compound 18] | H (more than 50% control value) | H (more than 50% control value) | H (more than 50% control value) | H (more than 50% control value) | H (more than 50% control value) | H (more than 50% control value) | H (more than 50% control value) | H (more than 50% control value)
CCOC(C)c1cc(Cl)c(=O)n(CC)c1-c1c(F)cccc1F (stereo not shown) [compound 19] | L (50% or less control value) | H (more than 50% control value) | H (more than 50% control value) | H (more than 50% control value) | H (more than 50% control value) | H (more than 50% control value) | H (more than 50% control value) | H (more than 50% control value)
CCn1c(-c2c(F)cccc2F)c(C(C)=O)cc(Cl)c1=O [compound 22] | L (50% or less control value) | H (more than 50% control value) | H (more than 50% control value) | H (more than 50% control value) | L (50% or less control value) | H (more than 50% control value) | L (50% or less control value) | H (more than 50% control value)
CCn1c(-c2c(F)cccc2F)c(C(C)(C)O)cc(Cl)c1=O [compound 23] | L (50% or less control value) | H (more than 50% control value) | H (more than 50% control value) | L (50% or less control value) | H (more than 50% control value) | H (more than 50% control value) | H (more than 50% control value) | H (more than 50% control value)
CC=C(C)c1cc(Cl)c(=O)n(CC)c1-c1c(F)cccc1F [compound 28] | L (50% or less control value) | H (more than 50% control value) | H (more than 50% control value) | H (more than 50% control value) | H (more than 50% control value) | H (more than 50% control value) | H (more than 50% control value) | H (more than 50% control value)
CCC(C)c1ccc(=O)n(CC)c1-c1c(F)cc(F)cc1F (stereo not shown) [compound 31] | L (50% or less control value) | H (more than 50% control value) | H (more than 50% control value) | H (more than 50% control value) | H (more than 50% control value) | H (more than 50% control value) | H (more than 50% control value) | H (more than 50% control value)
